Measured values from patent US20070128217A1 (priority 2003, published 2007).

Tests used:
[1] = system: recombinant human anti-SARS-CoV antibody 03-018; format: binding; design: Binding of antibody 03-018 to linear peptides of the N protein of SARS-CoV Urbani / Binding of antibody 03-018 to looped/cyclic peptides of the N protein of SARS-CoV Urbani: unit not given here
[2] = system: rabbit serum obtained by immunizing a rabbit with the SARS-CoV strain Frankfurt 1; format: binding; design: Binding of a rabbit serum to linear peptides / Binding of a rabbit serum to looped peptides / Rabbit serum linear peptides / Rabbit serum looped peptides / Binding of a rabbit serum to linear peptides of protein N of SARS-CoV Urbani (Rabbit serum linear peptides) / Binding of a rabbit serum to looped/cyclic peptides of protein N of SARS-CoV Urbani (Rabbit serum looped peptides): unit not given here
[3] = system: antibodies in sera from SARS patients (sera 1a, 1b, 2, 6, 37, 62, London, SARS-yellow, SARS-green); format: binding, human; design: Binding of serum 6 to linear peptides of protein X1 of SARS-CoV Urbani / Binding of serum 37 to linear peptides of protein X1 of SARS-CoV Urbani / Binding of serum 6 to looped/cyclic peptide (PEPSCAN-ELISA) / Binding of serum 37 to looped/cyclic peptide (PEPSCAN-ELISA) / Binding of serum 37 to looped/cyclic peptides of protein X1 of SARS-CoV Urbani / Binding of serum 6 to linear peptides of protein X2 / Binding of serum 37 to linear peptides of protein X2 / Binding of serum 37 to looped/cyclic peptides of protein X2 of SARS-CoV Urbani / Binding of serum 6 to linear peptides of protein M of SARS-CoV Urbani / Binding of serum 37 to linear peptides of protein M of SARS-CoV Urbani / Binding of serum 6 to looped/cyclic peptides of protein M of SARS-CoV Urbani / Binding of serum 37 to looped/cyclic peptides of protein M of SARS-CoV Urbani / Binding of serum 6 to linear peptides of protein X3 of SARS-CoV Urbani / Binding of serum 37 to linear peptides of protein X3 of SARS-CoV Urbani / Binding of serum 37 to looped/cyclic peptides of protein X3 of SARS-CoV Urbani / Binding of serum 6 to linear peptides of protein X4 of SARS-CoV Urbani / Binding of serum 37 to linear peptides of protein X4 of SARS-CoV Urbani / Binding of serum 37 to looped/cyclic peptides of protein X4 of SARS-CoV Urbani / Binding of serum 6 to linear peptides of protein X5 of SARS-CoV Urbani / Binding of serum 37 to linear peptides of protein X5 of SARS-CoV Urbani / Binding of serum 37 to looped/cyclic peptides of protein X5 of SARS-CoV Urbani / Binding of serum 6 to linear peptides of protein N of SARS-CoV Urbani / Binding of serum 37 to linear peptides of protein N of SARS-CoV Urbani / Binding of serum 6 to linear peptide (PEPSCAN-ELISA) / Binding of serum 1a to looped/cyclic peptides of protein N of SARS-CoV Urbani / Binding of serum 1b to looped/cyclic peptides of protein N of SARS-CoV Urbani / Binding of serum 2 to looped/cyclic peptides of protein N of SARS-CoV Urbani / Binding of serum 6 to looped/cyclic peptides of protein N of SARS-CoV Urbani / Binding of serum 37 to looped/cyclic peptides of protein N of SARS-CoV Urbani / Binding of serum 62 to looped/cyclic peptides of protein N of SARS-CoV Urbani / Binding of serum London to looped/cyclic peptides of protein N of SARS-CoV Urbani / Binding of serum SARS-green to looped/cyclic peptides of protein N of SARS-CoV Urbani: unit not given here
[4] = system: control sera (pooled serum of ten healthy LUMC hospital workers; commercial negative donor pooled serum from the Dutch bloodbank); format: binding, human; design: Binding of Control serum LUMC to linear peptides / Binding of Control serum Blood-bank to linear peptides / Binding of Control serum LUMC to looped peptides / Binding of Control Serum Blood-Bank to Looped peptides / Binding of Control serum LUMC to linear peptides of the protein M of SARS-CoV Urbani / Binding of Control serum Blood-bank to linear peptides of the protein M of SARS-CoV Urbani / Binding of Control serum LUMC to looped peptides of the protein M of SARS-CoV Urbani / Binding of Control Serum Blood-Bank to Looped peptides of the protein M of SARS-CoV Urbani: unit not given here

Row | Sequence | Binding of antibody 03-018 to linear peptides of the N protein of SARS-CoV Urbani [1] | Binding of antibody 03-018 to looped/cyclic peptides of the N protein of SARS-CoV Urbani [1] | Binding of a rabbit serum to linear peptides of protein N of SARS-CoV Urbani (Rabbit serum linear peptides) [2] | Binding of a rabbit serum to looped/cyclic peptides of protein N of SARS-CoV Urbani (Rabbit serum looped peptides) [2] | Binding of serum 1a to linear peptides of protein N of SARS-CoV Urbani [3] | Binding of serum 1a to looped/cyclic peptides of protein N of SARS-CoV Urbani [3] | Binding of serum 1b to linear peptides of protein N of SARS-CoV Urbani [3] | Binding of serum 1b to looped/cyclic peptides of protein N of SARS-CoV Urbani [3] | Binding of serum 2 to linear peptides of protein N of SARS-CoV Urbani [3] | Binding of serum 2 to looped/cyclic peptides of protein N of SARS-CoV Urbani [3] | Binding of serum 6 to looped/cyclic peptides of protein N of SARS-CoV Urbani [3] | Binding of serum 37 to looped/cyclic peptides of protein N of SARS-CoV Urbani [3] | Binding of serum 62 to looped/cyclic peptides of protein N of SARS-CoV Urbani [3] | Binding of serum London to looped/cyclic peptides of protein N of SARS-CoV Urbani [3] | Binding of serum SARS-green to looped/cyclic peptides of protein N of SARS-CoV Urbani [3] | Binding of serum SARS-yellow to looped/cyclic peptides of protein N of SARS-CoV Urbani [3] | Binding of Control Serum Blood-Bank to Looped peptides [4] | Binding of Control serum Blood-bank to linear peptides [4] | Binding of Control serum LUMC to linear peptides [4] | Binding of Control serum LUMC to looped peptides [4] | also measured
1 | RRATRRVRGGDGKMK | 0.1 | 0.2 | 0.6 | 0.1 | 0.2 | 0.2 | 0.1 | 0.1 | 0.3 | 0.1 | 0.1 | 0.4 | 0.3 | 0.2 | 0.0 | 0.2 | 0.4 | 0.8 | 0.8 | 0.3 | Binding of serum 6 to linear peptides of protein N of SARS-CoV Urbani [3]: 0.3; Binding of serum 37 to linear peptides of protein N of SARS-CoV Urbani [3]: 0.8; Binding of serum 62 to linear peptides of protein N of SARS-CoV Urbani [3]: 0.7; Binding of serum London to linear peptides of protein N of SARS-CoV Urbani [3]: 0.5; Binding of serum SARS-green to linear peptides of protein N of SARS-CoV Urbani [3]: 0.3; Binding of serum SARS-yellow to linear peptides of protein N of SARS-CoV Urbani [3]: 0.6
2 | RRGPEQTQGNFGDQD | 0.1 | 0.2 | 0.1 | 0.1 |  | 0.3 |  | 0.2 |  | 0.2 | 0.1 | 0.4 | 0.2 | 0.2 | 0.6 | 0.4 | 0.3 | 0.6 | 0.6 | 0.4 | Recognition of the peptide by sera of SARS-CoV infected individuals, and form (linear, looped/cyclic) in which it is recognized [3]: recognized in linear form
3 | RSSSRSRGNSRNSTP | 0.1 | 0.2 | 0.1 | 0.2 |  | 0.2 |  | 0.2 |  | 0.2 | 0.1 | 0.5 | 0.3 | 0.3 | 0.2 | 0.3 | 0.4 | 0.9 | 0.8 | 0.4 | Binding of serum 1a to linear peptide (PEPSCAN-ELISA) [3]: 0.3; Binding of serum 1b to linear peptide (PEPSCAN-ELISA) [3]: 0.1; Binding of serum 2 to linear peptide (PEPSCAN-ELISA) [3]: 0.2; Binding of serum 6 to linear peptide (PEPSCAN-ELISA) [3]: 0.2; Binding of serum 37 to linear peptide (PEPSCAN-ELISA) [3]: 0.5; Binding of serum 62 to linear peptide (PEPSCAN-ELISA) [3]: 0.6; Binding of serum London to linear peptide (PEPSCAN-ELISA) [3]: 0.5; Binding of serum SARS-green to linear peptide (PEPSCAN-ELISA) [3]: 0.2; Binding of serum SARS-yellow to linear peptide (PEPSCAN-ELISA) [3]: 0.5
4 | RVRGGDGKMKELSPR | 0.1 | 0.2 | 0.2 | 0.6 | 0.3 | 0.3 | 0.2 | 0.2 | 0.3 | 0.4 | 0.4 | 0.6 | 0.5 | 0.4 | 0.1 | 0.6 | 0.7 | 0.8 | 0.9 | 0.7 | Binding of serum 6 to linear peptides of protein N of SARS-CoV Urbani [3]: 0.2; Binding of serum 37 to linear peptides of protein N of SARS-CoV Urbani [3]: 0.7; Binding of serum 62 to linear peptides of protein N of SARS-CoV Urbani [3]: 0.8; Binding of serum London to linear peptides of protein N of SARS-CoV Urbani [3]: 0.5; Binding of serum SARS-green to linear peptides of protein N of SARS-CoV Urbani [3]: 0.6; Binding of serum SARS-yellow to linear peptides of protein N of SARS-CoV Urbani [3]: 0.7
5 | RWYFYYLGTGPEASL | 0.1 | 0.2 | 0.2 | 0.6 | 0.3 | 0.4 | 0.2 | 0.4 | 0.2 | 0.5 | 0.3 | 1.1 | 0.9 | 0.5 | 0.8 | 0.7 | 0.7 | 0.6 | 0.7 | 0.8 | Binding of serum 6 to linear peptides of protein N of SARS-CoV Urbani [3]: 0.2; Binding of serum 37 to linear peptides of protein N of SARS-CoV Urbani [3]: 0.8; Binding of serum 62 to linear peptides of protein N of SARS-CoV Urbani [3]: 0.8; Binding of serum London to linear peptides of protein N of SARS-CoV Urbani [3]: 0.4; Binding of serum SARS-green to linear peptides of protein N of SARS-CoV Urbani [3]: 0.3; Binding of serum SARS-yellow to linear peptides of protein N of SARS-CoV Urbani [3]: 0.6
